From patent publication EP4541376A1, “ANTIBODY-DRUG CONJUGATES” (priority 2023, dated 2025) come the findings set out here.

Series [1] in a line: Reverse-Phase HPLC retention time correlation study (hydrophobicity). In kind it is physicochemical. The following applies: RP-HPLC; high Rt associated to hydrophobic constructs, low Rt to hydrophilic ones. The protocol: • Column: Phenomenex Gemini NX 5m, C18, 110 Å, 150 × 4.6 mm • Instrument: Shimadzu LC-2030 • Mobile phase: A) water (0.05% TFA), B) acetonitrile (0.05% TFA) • Gradient: 20-70% B over 15 min, flow 1.0 mL/min
A correlation study was also carried out using Reverse-Phase HPLC (RP-HPLC). The two constructs were injected in RP-HPLC and retention times (Rt) correlated with hydrophobicity - i.e., high Rt was associated to hydrophobic constructs whereas low Rt to hydrophilic ones.

A short description of series [2]: Aggregation study during conjugation to test antibody (% monomer by SEC). In kind it is physicochemical. The protocol:
Aggregation is a process in which molecules self-associate with each other. In the context of the present invention, aggregation levels are assessed during the conjugation of a linker construct to an antibody. During conjugation, aggregation is quantified in terms of percentage monomer content. High percentage monomer values typically equate to a lower degree of aggregation. Percentage monomer values of 93% or 95% or higher typically mean negligible levels of aggregation or none, whereas values below this threshold typically translate to higher levels of aggregation.
2 mg of test monoclonal antibody at 8.87 mg/ml was pH adjusted with 5% 0.5 M Tris, 0.025 M EDTA, pH 8.5 and reduced with 2.3 mol. eq. TCEP and then conjugated with 6mol. eq. drug linker. […] Percentage monomer values of 95% or greater are assessed as low aggregation.
Aggregation levels were assessed during the conjugation to the test antibody.
During conjugation, we are ideally targeting a monomer content or percentage monomer of 95% or above. Low percentage monomer values usually translate to a higher degree of aggregation. One could therefore agree that percentage monomer values of 95% or higher mean very low levels of aggregation or none, whereas values below this threshold often translate to higher levels of aggregation.
Background: In gel filtration, larger molecules generally elute earlier.

Numbered stars: 1 amine (or outer) side, 2 acyl side, 3 side chain; on linkers, the order of the positions; unused ones are H or OH. Square brackets hold non-standard residues; d marks the D form. Peptide text beside a SMILES is read from it. * marks the point of attachment. Exatecan = CC[C@@]1(O)C(=O)OCc2c1cc1n(c2=O)Cc2c-1nc1cc(F)c(C)c3c1c2[C@@H](N*)CC3; Propanoyl(3-maleimido) = O=C1C=CC(=O)N1CCC(=O)*; PABC = O=C(OCc1ccc(N[*:1])cc1)[*:2]

For the compound `CC[C@@]1(O)C(=O)OCc2c1cc1n(c2=O)Cc2c-1nc1cc(F)c(C)c3c1c2[C@@H](NC(=O)OCc1ccc(NC(=O)[C@H](C)NC(=O)[C@@H](NC(=O)CNC(=O)CNC(=O)CNC(=O)CNC(=O)CNC(=O)CCN2C(=O)C=CC2=O)C(C)C)cc1)CC3` [Mal-Gly5-VA-PABC-Exatecan] ({Propanoyl(3-maleimido)}-GGGGGVA[PABC]-Exatecan), the Rt in series [1] is on record as 9.76 min. For the same compound, in series [2] (% monomer by SEC after conjugation to test monoclonal antibody, 95% or greater assessed as low aggregation), the “Aggregation (% monomer)” value amounted to 98%. Besides, the Aggregation result in series [2] (grade in words, drug linker conjugated to test monoclonal antibody (2.3 mol. eq. TCEP, 6 mol. eq. drug linker)) is on record as “None”.
